Source: a melting point compilation (Tetko et al.; mined from patent text by program, amines drawn as free bases though some values may be those of a salt)

Compound	melting point
COc1ccccc1C1(O)C(O)CC(c2ccccc2)(c2ccccc2)C2CN(C(=O)Cc3c[nH]c4ccc(O)cc34)CC21 (mixture of isomers)	230 to 235 °C
CC(C)c1ncc(OCc2ccccc2)c(O)n1	198 °C
CC(=O)Oc1cccnc1-n1ccnc1S(=O)Cc1ccccc1N1CCOCC1 (stereo not drawn)	104 to 107 °C
Nc1nc(-c2cc(Cl)ccc2Cl)nc(N2CCCC(O)C2)n1 (stereo not drawn)	178 to 180 °C
c1ccc(-c2ccc(CN3Cc4cccn4Cc4ccccc43)cc2)cc1	135 to 137 °C
O=c1cc2c(n[nH]1)-c1ccccc1SCC2	311 to 313 °C
CC(C)(C)C(=O)C(C(Cl)C(Cl)(Cl)Cl)n1cncn1 (stereo not drawn)	111 to 113 °C
N#Cc1ccc(Oc2ccccc2)cn1	84 to 85 °C
NCCc1c[nH]c(=O)[nH]c1=O	214 to 220 °C
CCCc1c(OCCCC/C=C/c2ccc(C(=O)c3cccc(C(=O)O)c3)cc2CCC(=O)O)ccc2c1OCCC2=O	105 to 109 °C
N=C(N)Nc1c(Cl)cccc1Cl	213 °C
Cc1nc2c(-c3cccc(N4CCOCC4)c3)cnn2c(N)c1-c1cccc(Cl)c1	165 to 167 °C
O=[N+]([O-])c1cnc(Sc2n[nH]c(-c3ccccc3)n2)s1	155 to 157 °C
ClCc1ccc(-c2nsc3ccccc23)cc1	86 to 89 °C
NC(=Nc1ccc2[nH]c3ccccc3c2c1)c1cccs1	243 to 244 °C
CN(Cc1ccccc1)C(=O)c1cnc2c3c(c(F)cc2c1)C(=O)C(C#N)C=N3 (stereo not drawn)	267 to 269 °C
CC(OC(C)c1ncn2c1CN(C)C(=O)c1cc(Cl)ccc1-2)c1ncn2c1CN(C)C(=O)c1cc(Cl)ccc1-2 (stereo not drawn)	193 to 194 °C
O=[N+]([O-])c1cc2c(Cl)ncnc2cc1F	116 to 118 °C
CC1Cc2cc3c(cc2C(c2ccc([N+](=O)[O-])cc2)=NN1)OCO3 (stereo not drawn)	162 to 164 °C
CCCCCc1c(C(C)C)nc(C(C)C)c(CO)c1-c1ccc(OC)cc1	47 to 49 °C
CCOC(=O)c1sc2cc(OCc3cccnc3)ccc2c1Sc1ccccc1N(S(C)(=O)=O)S(C)(=O)=O	165 to 167 °C
COc1ccc(-c2c(CO)[nH]c3cc(OC)c(OC)cc23)cc1	169 to 170 °C
C#CCNC1=NS(=O)(=O)N=C1NCCSCc1csc(NC(=N)N)n1	176 to 178 °C
Nc1ncnc2c1ncn2Cc1nc2cc(F)ccc2c(=O)n1-c1ccccc1Cl	217 °C
NC(=O)c1[nH]cnc1OC(=O)C=Cc1ccccc1	170 to 175 °C
C=C(C)COc1ccc2c(=O)c(C)c(-c3ccccc3)oc2c1C(=O)C=Cc1cc(OC)c(OC)c(OC)c1	82 to 84 °C
O=C(c1ccc([N+](=O)[O-])cc1Cl)N1CCCCc2ncccc21	143 to 145 °C
O=P(Oc1cccc(OP(=O)(c2ccccc2)c2ccccc2)c1)(c1ccccc1)c1ccccc1	130 °C

Compound	melting point
CC(C)(C)OC(=O)N1CCN(C(c2ccccc2)c2ccccc2)CC1	129 to 131 °C
c1cc(CNc2nccc3ccccc23)cc(Nc2nnc3c4c(cccc24)-c2ccccc2-3)c1	149 to 152 °C
O=C1NCCc2ccc(OCCCCN3CCC(c4cccc(Cl)c4Cl)CC3)cc21	113 to 114 °C
OC(Cn1cncn1)(c1ccc(F)cc1F)C(F)(F)F (stereo not drawn)	110 to 111 °C
Cc1ncc2cc(C#N)c(O)nc2n1	> 200 °C
CCc1cc(N(C)Cc2ccc3oc(-c4ccccc4C#N)cc3c2)n2nccc2n1	143 °C
CCn1ncc2c(NCc3cccc(O)c3)c3ccccc3nc21	> 240 °C
O=C(CCc1ccccc1)c1cc2ccncc2[nH]1	246 to 250 °C
Cc1nc(CCOCCCCCCNCC(O)c2cc(Cl)c(N)c(Cl)c2)cs1 (stereo not drawn)	67 to 69 °C
O=c1ccccn1C1=CC(CF)(CF)Oc2ccc(C(F)(F)F)cc21	139 to 140 °C
CS(=O)(=O)c1ccc(C(=O)c2cnoc2C2CC2)c(Cl)c1-c1nccs1	153 to 155 °C
OC1(c2ccc(-c3ccccc3)cc2)CN2CCC1CC2 (stereo not drawn)	165 to 166 °C
CS(=O)(=O)c1ccc(-c2c(-c3ccccc3F)[nH]c3ccc(Cl)cc23)cc1	246 to 248 °C
O=C(O)c1c(C(F)(F)F)nc2c(C(F)(F)F)cccc2c1O	188 °C
COC[C@](C#N)(C(=O)N1CCN(c2cnccn2)CC1)[C@H](c1ccccc1OC)c1cccc2ccccc12	149 °C
CCC(Oc1ccc(CCC(=O)c2ccc(-c3ccc(C(F)(F)F)cc3)s2)cc1)C(=O)O (stereo not drawn)	116 to 117 °C
Cc1nc(N2CCNCC2)nc(N2CCS(=O)(=O)CC2)c1[N+](=O)[O-]	208 to 211 °C
COc1ccc(/C=C/c2nc3cc([N+](=O)[O-])ccc3[nH]2)cc1OC	223 to 225 °C
Brc1cn2ccccc2n1	83 to 85 °C
CCOC(=O)c1c(S(=O)(=O)Cc2nccn2C)nc2cc(OC)c(OC)cc2c1-c1ccc(OC)c(OC)c1	132 to 133 °C
O=C(CN(C(=O)CCl)C1Cc2ccccc2C1)OCc1ccccc1	99.5 to 100 °C
O=C(NCCc1ccccc1)c1ccccc1-c1ccccc1CNS(=O)(=O)c1cccc(F)c1	153 °C
Cc1nnc(-c2ccc3occ(-c4cccc(CO)c4)c3c2)o1	115 to 116 °C
C=Cc1cc(C2=NCCO2)ccc1OCCCCCc1cc(C)no1	116 to 117 °C
Nc1nc(Cl)c(N)c(NCCCCO)n1	110 to 111 °C
CC(=O)N1CCc2ccc(S(=O)(=O)n3c(CCCC(=O)O)cc4cc(Cl)ccc43)cc2C1	95 to 97 °C
O=C(N(CCN(C(=O)C(F)(F)F)c1cccc2[nH]ccc12)Cc1ccccc1)C(F)(F)F	174 to 177 °C

More lines, now with the values ahead:

melting point	Compound
94 to 95 °C	COc1ccc(CC(C#N)C(=O)O)cc1 (stereo not drawn)
111 °C	Cc1ccc(-c2nc(CCCCCCSC(C)(C)C(=O)O)c(C)o2)cc1
150 to 151 °C	CN1CCNC(=O)N1c1cc(Cl)cc(Cl)c1
206 to 208 °C	CCCN(CCC)C1Cc2cc3c(cc2C1)C(=O)NC3 (stereo not drawn)
165 to 170 °C	CO[C@@H]1C=C2C=C3C(=C(C)C(=O)N3C)C[C@]2(C)[C@@H](C)[C@H]1O
152 to 160 °C	COC(=O)COc1cccc2c1S[C@@H](c1ccc(OC)cc1)[C@@H](O)C(=O)N2CCN(C)C (racemic)
160 to 161 °C	CC(C)OC(=O)c1ccc(=O)n(CCNC(=O)c2cccnc2)c1
79 to 81 °C	CNC(=NCCSCc1cc(CN2CCCCC2)ccn1)NC#N
77 °C	CCONCCCC=C1C(=O)CC(c2ccc(Cl)cc2)CC1=O (stereo not drawn)
233 °C	CC(=O)Nc1ccc(C(=O)O)c2c1OCCO2
128 to 130 °C	COc1ccnc(Cc2cnc(NCCSCc3nc[nH]c3C)[nH]c2=O)c1
105 to 108 °C	COC(=O)C=C(OC)c1ccccc1OCc1csc(-c2ccc(F)cc2)n1
160 to 161 °C	COc1ccc(Nc2ccc(C)cc2)c(C(=O)O)c1
104 to 105 °C	Cc1nn(C)c(OCC(=O)C(C)(C)C)c1C(=O)c1ccc(Cl)cc1Cl
181 to 183 °C	CS(=O)CCN1CCC2(CC1)CC(=O)c1cc(NS(C)(=O)=O)ccc1O2 (stereo not drawn)
91 to 93 °C	CCOC(=O)CNc1c(C)cc(C(O)(C(F)(F)F)C(F)(F)F)cc1C
116 to 124 °C	CCOC(=O)c1cn(-c2cc(N)c(F)c(F)c2F)c2cc(F)c(F)cc2c1=O
238 to 239 °C	CNC(=O)NCC1OC(n2cc(C)c(=O)[nH]c2=O)CC1O (stereo not drawn)
65 to 67 °C	COCC1=C(c2ccccc2)C(=O)N(C(C)(C)C(=O)OC(C)(C)C)CO1
220 to 222 °C	COc1cc2c(c3c1OC(C)(C)C3)C(c1ccn(Cc3ccc(C(=O)NCCO)cc3)c(=O)c1)=NC(C)(C)C2
89 to 92 °C	COC(=O)c1ccc(CCCNCC(O)c2cccc(Cl)c2)cc1 (stereo not drawn)
206 to 209 °C	CC(C(=O)O)c1ccc2c(c1)Cc1cc([N+](=O)[O-])ccc1-2 (stereo not drawn)

melting point	Compound
107 to 108 °C	CCOC(=O)c1cnn(C)c1NCc1ccc(-c2ccccc2C#N)cc1
112 to 114 °C	COc1ccc(OC)c2c1CCC(O)(CC(=O)O)C2 (stereo not drawn)
80 to 83 °C	Cc1cn(S(C)(=O)=O)c2c1C(=O)CC(c1ccccc1)C2 (stereo not drawn)
152 °C	CS(=O)c1ccc(-c2nn(CC3CC3)c(=O)cc2-c2ccc(Cl)cc2)cc1 (stereo not drawn)
164 to 166 °C	CC(C)(C)OC(=O)NC1CCCCCC=CC2CC2(C(=O)NS(=O)(=O)C2CC2)NC(=O)C2CC(OC(=O)c3ccccn3)CN2C1=O (stereo not drawn)
139 to 140 °C	CCCC(=O)Cc1ccc(C(=O)Nc2ccc3cc(CN4CCCC4)cnc3c2C)cc1
185 °C	O=C(NC1CCC(CCN2CCN(c3nccc4c3OCC4)CC2)CC1)C(O)C(F)(F)F (racemic)
192 °C	CCNC(=O)c1cccc(NC(=O)c2nnn(Cc3ccc(Cl)c(Cl)c3)c2C)c1
114 °C	O=C(CCCC(=O)N1C(=O)OC[C@@H]1Cc1ccccc1)c1ccc(F)cc1
112 °C	CC(=O)OCc1cc2ccccc2[nH]1
172 °C	COC1=CC(=O)C2=C(CC=CC2)C1=O
259 °C	CCCCc1ccc(-c2[nH]nc3c2C(=O)c2c(NC(C)=O)cccc2-3)cc1
44 to 45 °C	CCOC(=O)c1oc(C(C)(C)C)cc1N
108 °C	CC(C)[C@H](NC(=O)OC(C)(C)C)C(=O)NCCCN1CCN(CCCNc2cccc3c2C(=O)c2ccccc2C3=O)CC1
199 to 202 °C	CC(=O)NCC1CN(c2cc(F)c(N3CCN(C(=O)COC(=O)c4ccc(N(C)C)cc4)CC3)c(F)c2)C(=O)O1 (stereo not drawn)
73 to 75 °C	CSC1NC(=O)N(C(C)C)C(=O)N1C (stereo not drawn)
156 to 158 °C	Cc1cccc(Nc2cc(Cl)nc(SCC(=O)NC(C)C)n2)c1C
85 to 88 °C	O=C1CC2C(OCc3ccc(Br)cc3)CC(O1)C2N1CCCCC1 (single isomer, unassigned; (-))
133 to 135 °C	CC(=O)Nc1cc(C)c(N)cc1C
93 to 94.5 °C	COc1cnc(CO)cc1OC1CCCC1
134 °C	COC(=O)c1cc(NC(=O)c2cc(NC(=O)c3cc(NC(=O)OC(C)(C)C)cn3C)cn2C)cn1C
